Results taken from patent publication US12583851B2, “Heteroaryl-substituted pyrazine derivatives as pesticides” (Elanco Animal Health GmbH, priority 2019, dated 2026).

Experiments:
Type in all cases: in vivo
[1] = system: adult cat fleas (Ctenocephalides felis); assay: Ctenocephalides felis in-vitro contact test, adult cat flea; details: after 48 hours, read-out: efficacy (fleas dead or moribund); for pest or weed control at 5 µg/cm2, 500 g/ha: 5 μg/cm^2 (=500 g/ha); for pest or weed control at 1 µg/cm2, 100 g/ha: 1 μg/cm^2 (=100 g/ha)
Procedure: Ctenocephalides felis—In-Vitro Contact Tests Adult Cat Flea
(§1) 9 mg compound is solved in 1 ml acetone and diluted with acetone to the desired concentration. 250 μL of the test solution is filled in 25 mL glass test tubes and homogeneously distributed on the inner walls by rotation and tilting on a shaking device (2 h at 30 rpm). With a compound concentration of 900 ppm, an inner surface of 44.7 cm^2 and a homogeneous distribution, a dose of 5 μg/cm^2 is achieved.
(§2) After the solvent has evaporated, each test tube is filled with 5-10 adult cat fleas (Ctenocephalides felis), closed with a perforated lid and incubated in a lying position at room temperature and relative humidity. After 48 hours efficacy is determined. The fleas are patted on the ground of the tubes and are incubated on a heating plate at 45-50° C. for at most 5 minutes Immotile or uncoordinated moving fleas, which are not able to escape the heat by climbing upwards, are marked as dead or moribund.
An efficacy of 100% means all fleas are dead or moribund; 0% means no fleas are dead or moribund.

[2] = system: Rhipicephalus (Boophilus) microplus larvae (strain Parkhurst, resistant against synthetic pyrethroids); assay: Rhipicephalus (Boophilus) microplus in-vitro contact test, larval cattle tick; details: after 48 hours, read-out: efficacy (larvae dead or moribund); for pest or weed control at 1 µg/cm2, 100 g/ha: 1 μg/cm^2 (=100 g/ha); for pest or weed control at 5 µg/cm2, 500 g/ha: 5 μg/cm^2 (=500 g/ha)
Summary of the method: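 Acetone solutions were coated onto glass tube walls (900 ppm gives 5 μg/cm²); after drying, 20–50 pyrethroid-resistant Parkhurst larvae added and held at 27 °C, 85% RH. At 48 h, efficacy as % larvae dead or moribund, judged by loss of negative geotaxis.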

[3] = system: fall armyworm larvae (Spodoptera frugiperda); assay: Spodoptera frugiperda spray test; details: 168 h, maize leaf sections, after 7 days
Summary of the method: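 Compound dissolved in acetone/dimethylformamide, diluted in water containing 1000 ppm alkylarylpolyglycol ether emulsifier and sprayed onto maize leaf sections. Dried sections were infested with larvae; % mortality scored after 7 days (100% = all caterpillars killed, 0% = none).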

[4] = system: adult brown dog ticks (Rhipicephalus sanguineus); assay: Rhipicephalus sanguineus in-vitro contact test, adult brown dog ticks; details: 48 h, after 48 hours, read-out: efficacy (ticks dead or moribund); for pest or weed control at 5 µg/cm2, 500 g/ha: 5 μg/cm^2 (=500 g/ha)
Procedure: Rhipicephalus sanguineus—In-Vitro Contact Tests with Adult Brown Dog Ticks
as §1, with “mL” for “ml”, “[…]” for “250 μL”
as §2, with “brown dog ticks (Rhipicephalus sanguineus),” for “cat fleas (Ctenocephalides felis),”, “ticks” for “fleas”, “ticks,” for “fleas,”
An efficacy of 100% means all ticks are dead or moribund; 0% means no ticks are dead or moribund.

[5] = system: larvae of the banded cucumber beetle (Diabrotica balteata); assay: Diabrotica balteata spray test; details: 168 h, after 7 days, read-out: efficacy (seedling growth); for pest or weed control at 6.4 µg/disc, 20 g/ha: 20 g/ha (=6.4 μg/well); for pest or weed control at 32 µg/disc, 100 g/ha: 100 g/ha (=32 μg/well)
Summary of the method: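 Germinated wheat seedlings (5 per well, on agar) sprayed with compound in acetone/DMF with emulsifier-containing water, then infested with 10–20 Diabrotica balteata larvae. Efficacy (%) scored after 7 days from seedling growth: 100% = growth as untreated uninfested control, 0% = no seedlings grown.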

SMILES: CC(NC(=O)c1cc(C(F)(F)F)cc(C(F)(F)F)c1)c1nccnc1-c1ccc(C(=O)N(C)CC2CC2)cn1 (racemic) [Example I-32, (rac)-6-(3-{1-[3,5-Bis(trifluoromethyl)benzamido]ethyl}pyrazin-2-yl)-N-(cyclopropylmethyl)-N-methylpyridine-3-carboxamide]
- pest or weed control at 5 µg/cm2, 500 g/ha [1]: 100%
- pest or weed control at 1 µg/cm2, 100 g/ha [2]: 100%
- pest or weed control at 5 µg/cm2, 500 g/ha [2]: 100%
- mortality at 100 g/ha [3]: 100%

SMILES: CC(NC(=O)c1cc(Br)cc(C#N)c1)c1nccnc1-c1ccc(C(=O)N2CCOCC2)cn1 (racemic) [Example I-33, (rac)-3-Bromo-5-cyano-N-[1-{3-[5-(morpholine-4-carbonyl)pyridin-2-yl]pyrazin-2-yl}ethyl]benzamide]
- pest or weed control at 1 µg/cm2, 100 g/ha [1]: 100%
- pest or weed control at 5 µg/cm2, 500 g/ha [1]: 100%
- pest or weed control at 1 µg/cm2, 100 g/ha [2]: 90%
- pest or weed control at 5 µg/cm2, 500 g/ha [2]: 100%

SMILES: CCNC(=O)c1ccc(-c2nccnc2C(C)NC(=O)c2cc(C(F)(F)F)cc(C(F)(F)F)c2)nc1 (racemic) [Example I-35, (rac)-6-(3-{1-[3,5-Bis(trifluoromethyl)benzamido]ethyl}pyrazin-2-yl)-N-ethylpyridine-3-carboxamide]
- pest or weed control at 1 µg/cm2, 100 g/ha [1]: 80%
- pest or weed control at 5 µg/cm2, 500 g/ha [1]: 100%
- pest or weed control at 1 µg/cm2, 100 g/ha [2]: 100%
- pest or weed control at 5 µg/cm2, 500 g/ha [2]: 100%

SMILES: CC(NC(=O)c1cc(Br)cc(C#N)c1)c1nccnc1-c1ccc(Cl)cn1 (racemic) [Example I-48, (rac)-3-Bromo-N-{1-[3-(5-chloropyridin-2-yl)pyrazin-2-yl]ethyl}-5-cyanobenzamide]
- mortality at 100 g/ha [3]: 100%
- pest or weed control at 5 µg/cm2, 500 g/ha [4]: 80%
- pest or weed control at 6.4 µg/disc, 20 g/ha [5]: 80%
- pest or weed control at 32 µg/disc, 100 g/ha [5]: 100%

SMILES: CC(NC(=O)c1cc(Cl)cc(C(F)(F)F)c1)c1nccnc1-c1ncc(C(=O)N2CCOCC2)s1 (racemic) [Example I-59, (rac)-3-Chloro-N-[1-{3-[5-(morpholine-4-carbonyl)-1,3-thiazol-2-yl]pyrazin-2-yl}ethyl]-5-(trifluoromethyl)benzamide]
- pest or weed control at 1 µg/cm2, 100 g/ha [2]: 100%
- pest or weed control at 5 µg/cm2, 500 g/ha [2]: 100%
- mortality at 100 g/ha [3]: 83%
- pest or weed control at 5 µg/cm2, 500 g/ha [4]: 100%
- pest or weed control at 32 µg/disc, 100 g/ha [5]: 100%

SMILES: CC(NC(=O)c1cc(Br)cc(OC(F)(F)F)c1)c1nccnc1-c1ncc(C(=O)N2CCOCC2)s1 (racemic) [Example I-61, (rac)-3-Bromo-N-[1-{3-[5-(morpholine-4-carbonyl)-1,3-thiazol-2-yl]pyrazin-2-yl}ethyl]-5-(trifluoromethoxy)benzamide]
- pest or weed control at 1 µg/cm2, 100 g/ha [1]: 100%
- pest or weed control at 5 µg/cm2, 500 g/ha [1]: 100%
- pest or weed control at 1 µg/cm2, 100 g/ha [2]: 100%
- pest or weed control at 5 µg/cm2, 500 g/ha [2]: 100%

SMILES: CC(NC(=O)c1cc(C(F)(F)F)cc(C(F)(F)F)c1)c1nccnc1-c1ncc(C(=O)N2CCCOCC2)s1 (racemic) [Example I-68, (rac)-N-[1-{3-[5-(1,4-Oxazepane-4-carbonyl)-1,3-thiazol-2-yl]pyrazin-2-yl}ethyl]-3,5-bis(trifluoromethyl)benzamide]
- pest or weed control at 1 µg/cm2, 100 g/ha [1]: 100%
- pest or weed control at 5 µg/cm2, 500 g/ha [1]: 100%
- pest or weed control at 1 µg/cm2, 100 g/ha [2]: 100%
- pest or weed control at 5 µg/cm2, 500 g/ha [2]: 100%
- pest or weed control at 5 µg/cm2, 500 g/ha [4]: 100%
- pest or weed control at 32 µg/disc, 100 g/ha [5]: 100%

SMILES: CCN(C)C(=O)c1cnc(-c2nccnc2C(C)NC(=O)c2cc(C(F)(F)F)cc(C(F)(F)F)c2)s1 (racemic) [Example I-72, (rac)-2-(3-{1-[3,5-Bis(trifluoromethyl)benzamido]ethyl}pyrazin-2-yl)-N-ethyl-N-methyl-1,3-thiazole-5-carboxamide]
- pest or weed control at 1 µg/cm2, 100 g/ha [2]: 100%
- pest or weed control at 5 µg/cm2, 500 g/ha [2]: 100%
- mortality at 100 g/ha [3]: 100%
- pest or weed control at 5 µg/cm2, 500 g/ha [4]: 80%
- pest or weed control at 6.4 µg/disc, 20 g/ha [5]: 100%
- pest or weed control at 32 µg/disc, 100 g/ha [5]: 100%

SMILES: CC(NC(=O)c1cc(Br)cc(OC(F)(F)F)c1)c1nccnc1-n1cc(C(F)(F)F)cn1 (racemic) [Example I-94, (rac)-3-Bromo-5-(trifluoromethoxy)-N-[1-{3-[4-(trifluoromethyl)-1H-pyrazol-1-yl]pyrazin-2-yl}ethyl]benzamide]
- pest or weed control at 1 µg/cm2, 100 g/ha [2]: 100%
- pest or weed control at 5 µg/cm2, 500 g/ha [2]: 100%
- mortality at 100 g/ha [3]: 100%
- pest or weed control at 5 µg/cm2, 500 g/ha [4]: 80%
- pest or weed control at 32 µg/disc, 100 g/ha [5]: 100%

SMILES: CC(NC(=O)c1cc(Br)cc(C(F)(F)F)c1)c1nccnc1-c1ncc(C(=O)N(C)C)s1 (racemic) [Example I-118, (rac)-2-(3-{1-[3-Bromo-5-(trifluoromethyl)benzamido]ethyl}pyrazin-2-yl)-N,N-dimethyl-1,3-thiazole-5-carboxamide]
- pest or weed control at 5 µg/cm2, 500 g/ha [1]: 90%
- pest or weed control at 1 µg/cm2, 100 g/ha [2]: 100%
- pest or weed control at 5 µg/cm2, 500 g/ha [2]: 100%
- mortality at 100 g/ha [3]: 100%
- pest or weed control at 6.4 µg/disc, 20 g/ha [5]: 100%
- pest or weed control at 32 µg/disc, 100 g/ha [5]: 100%

SMILES: CC(NC(=O)c1cc(Br)cc(C(F)(F)F)c1)c1nccnc1-c1ncc(C(=O)N(C)CC2CC2)s1 (racemic) [Example I-119, (rac)-2-(3-{1-[3-Bromo-5-(trifluoromethyl)benzamido]ethyl}pyrazin-2-yl)-N-(cyclopropylmethyl)-N-methyl-1,3-thiazole-5-carboxamide]
- pest or weed control at 5 µg/cm2, 500 g/ha [1]: 90%
- pest or weed control at 1 µg/cm2, 100 g/ha [2]: 100%
- pest or weed control at 5 µg/cm2, 500 g/ha [2]: 100%
- mortality at 100 g/ha [3]: 100%
- pest or weed control at 6.4 µg/disc, 20 g/ha [5]: 100%
- pest or weed control at 32 µg/disc, 100 g/ha [5]: 100%

SMILES: CC(NC(=O)c1cc(C(F)(F)F)cc(C(F)(F)F)c1)c1nccnc1-n1cc(C(=O)N2C[C@@H](C)O[C@@H](C)C2)cn1 (mixture of isomers) [Example I-138, (rac)-N-[1-(3-{4-[(cis)-2,6-Dimethylmorpholine-4-carbonyl]-1H-pyrazol-1-yl}pyrazin-2-yl)ethyl]-3,5-bis(trifluoromethyl)benzamide]
- pest or weed control at 1 µg/cm2, 100 g/ha [2]: 100%
- pest or weed control at 5 µg/cm2, 500 g/ha [2]: 100%
- mortality at 100 g/ha [3]: 100%
- pest or weed control at 1 µg/cm2, 100 g/ha ([4]; 1 μg/cm^2 (=100 g/ha)): 100%
- pest or weed control at 5 µg/cm2, 500 g/ha [4]: 100%
- pest or weed control at 32 µg/disc, 100 g/ha [5]: 100%

SMILES: CC(NC(=O)c1cc(OC(F)F)cc(OC(F)F)c1)c1nccnc1-c1ncc(C(=O)N(C)CC2CC2)s1 (racemic) [Example I-143, (rac)-2-(3-{1-[3,5-Bis(difluoromethoxy)benzamido]ethyl}pyrazin-2-yl)-N-(cyclopropylmethyl)-N-methyl-1,3-thiazole-5-carboxamide]
- pest or weed control at 1 µg/cm2, 100 g/ha [2]: 100%
- pest or weed control at 5 µg/cm2, 500 g/ha [2]: 90%
- mortality at 100 g/ha [3]: 100%
- pest or weed control at 6.4 µg/disc, 20 g/ha [5]: 100%
- pest or weed control at 32 µg/disc, 100 g/ha [5]: 100%

SMILES: CC(NC(=O)c1cc(Cl)cc(Br)c1)c1nccnc1-c1ccc(Cl)cn1 (centres unmarked) [Example I-19]
- pest or weed control at 5 µg/cm2, 500 g/ha [1]: 80%
- mortality at 100 g/ha [3]: 100%
- pest or weed control at 6.4 µg/disc, 20 g/ha [5]: 100%
- pest or weed control at 32 µg/disc, 100 g/ha [5]: 100%

SMILES: COc1ccc(-c2nccnc2C(C)NC(=O)c2cc(Br)cc(OC(F)(F)F)c2)nc1 (centres unmarked) [Example I-27]
- pest or weed control at 1 µg/cm2, 100 g/ha [1]: 80%
- pest or weed control at 5 µg/cm2, 500 g/ha [1]: 80%
- pest or weed control at 1 µg/cm2, 100 g/ha [2]: 90%
- pest or weed control at 5 µg/cm2, 500 g/ha [2]: 80%
- pest or weed control at 32 µg/disc, 100 g/ha [5]: 100%
